Measurements published in US10105357B2, “Indication of antibiotic drugs for preparation of cancer inhibition pharmaceutical composition” (LAUNX BIOMEDICAL CO., LTD., priority 2014, dated 2018).
Where two headings read alike, the source gives them in different places.

Legend:
Assay type in all cases: cell-based, human
[1] = test system: HepG2 (Hepatocellular Carcinoma); assay: Cell viability analysis, hepatic cancer HepG2; conditions: Homo sapiens, HepG2, 72 h
[2] = test system: C-33A (Cervical carcinoma); assay: Cell viability analysis, cervical cancer C-33A; conditions: Homo sapiens, C-33-A, 72 h, read-out: The results of antibiotic drug inhibiting cancer cell lines (cell viability analysis), C-33A
[3] = test system: MCF7 (Mammary Gland, Adenocarcinoma); assay: Cell viability analysis, breast cancer MCF7; conditions: Homo sapiens, MCF7, 72 h
[4] = test system: HL-60 (Acute Promyelocytic Leukemia); assay: Cell viability analysis, leukemia HL-60; conditions: Homo sapiens, HL-60, 72 h, read-out: cell viability (survival rate), HL-60, drug 10 μM, 72 hours, WST-1, OD450 nm
[5] = test system: HI650 (Lung Adenocarcinoma); assay: Cell viability analysis, lung cancer HI650; conditions: Homo sapiens, NCI-H1650, 72 h
[6] = test system: SAS (Tongue squamous cell carcinoma); assay: Cell viability analysis, tongue cancer SAS; conditions: Homo sapiens, 72 h, read-out: The results of antibiotic drug inhibiting cancer cell lines (cell viability analysis), SAS
[7] = test system: TSGH-8301 (Urinary Bladder Carcinoma); assay: Cell viability analysis, bladder cancer TSGH-8301; conditions: Homo sapiens, 72 h
TOV-21G = assay: Cell viability analysis, ovarian cancer TOV-21G; conditions: Homo sapiens, TOV21G, 72 h, read-out: The results of antibiotic drug inhibiting cancer cell lines (cell viability analysis), TOV-21G
[8] = test system: AGS (Gastric Adenocarcinoma); assay: Cell viability analysis, gastric cancer AGS; conditions: Homo sapiens, 72 h
cancer cell lines = assay: Cell viability analysis (WST-1) on cancer cell lines; conditions: drug 10 μM, 72 hours, WST-1; Table 3
T24 = assay: Cell viability analysis, bladder cancer T24; conditions: Homo sapiens, T-24, 72 h, read-out: The results of antibiotic drug inhibiting cancer cell lines (cell viability analysis), T24
U-2OS = assay: Cell viability analysis, osteosarcoma U-2OS; conditions: Homo sapiens, U2OS, 72 h, read-out: The results of antibiotic drug inhibiting cancer cell lines (cell viability analysis), U2OS
BxPC-3 = assay: Cell viability analysis, pancreatic cancer BxPC-3; conditions: Homo sapiens, BXPC-3, 72 h, read-out: The results of antibiotic drug inhibiting cancer cell lines (cell viability analysis), BxPC-3
NIH: OVCAR-3 = assay: Cell viability analysis, ovarian cancer NIH: OVCAR-3; conditions: Homo sapiens, OVCAR-3, 72 h, read-out: The results of antibiotic drug inhibiting cancer cell lines (cell viability analysis), NIH-OVCAR-3
[9] = test system: HeLa (Cervix Adenocarcinoma); assay: Cell viability analysis, cervical cancer HeLa; conditions: Homo sapiens, HeLa, 72 h
[10] = test system: MKN-45 (Gastric Adenocarcinoma); assay: Cell viability analysis, gastric cancer MKN-45; conditions: Homo sapiens, MKN-45, 72 h
[11] = test system: BCC (basal cell carcinoma); assay: Cell viability analysis, skin cancer BCC; conditions: Homo sapiens, 72 h, read-out: The results of antibiotic drug inhibiting cancer cell lines (cell viability analysis), BCC
[12] = test system: 786-O (Renal adenocarcinoma); assay: Cell viability analysis, renal cancer 786-O; conditions: Homo sapiens, 786-0, 72 h, read-out: The results of antibiotic drug inhibiting cancer cell lines (cell viability analysis), 786-O
AsPC-1 = assay: Cell viability analysis, pancreatic cancer AsPC-1; conditions: Homo sapiens, ASPC1, 72 h, read-out: The results of antibiotic drug inhibiting cancer cell lines (cell viability analysis), AsPC-1
[13] = test system: PC3 (p53−) (Prostate Adenocarcinoma); assay: Cell viability analysis, prostate cancer PC3; conditions: Homo sapiens, 72 h
[14] = test system: Hep3B (hepatocellular carcinoma); assay: Cell viability analysis, hepatic cancer Hep3B; conditions: Homo sapiens, Hep3B, 72 h, read-out: The results of antibiotic drug inhibiting cancer cell lines (cell viability analysis), Hep3B
[15] = test system: A375 (Amelanotic Melanoma); assay: Cell viability analysis, skin cancer A375; conditions: Homo sapiens, A-375, 72 h
[16] = test system: A549 (Lung Adenocarcinoma); assay: Cell viability analysis, lung cancer A549; conditions: Homo sapiens, A549, 72 h
[17] = test system: MDA-MB-231 (Mammary Gland, Adenocarcinoma); assay: Cell viability analysis, breast cancer MDA-MB-231; conditions: Homo sapiens, MDA-MB-231, 72 h, read-out: The results of antibiotic drug inhibiting cancer cell lines (cell viability analysis), MDA-MB231
[18] = test system: LoVo (Colorectal Adenocarcinoma); assay: Cell viability analysis, colon cancer LoVo; conditions: Homo sapiens, LoVo, 72 h
[19] = read-out: The results of antibiotic drug inhibiting cancer cell lines (cell viability analysis), HepG2, HepG2, repeated experiment
[20] = read-out: cell viability (survival rate), HepG2, drug 10 μM, 72 hours, WST-1, OD450 nm
[21] = read-out: The results of antibiotic drug inhibiting cancer cell lines (cell viability analysis), MCF-7, MCF-7, repeated experiment
[22] = read-out: cell viability (survival rate), MCF7, drug 10 μM, 72 hours, WST-1, OD450 nm
[23] = read-out: The results of antibiotic drug inhibiting cancer cell lines (cell viability analysis), H1650, H1650, repeated experiment
[24] = read-out: cell viability (survival rate), H1650, drug 10 μM, 72 hours, WST-1, OD450 nm
[25] = read-out: The results of antibiotic drug inhibiting cancer cell lines (cell viability analysis), TSGH-8301, TSGH-8301, repeated experiment
[26] = read-out: cell viability (survival rate), TSGH, drug 10 μM, 72 hours, WST-1, OD450 nm
[27] = read-out: The results of antibiotic drug inhibiting cancer cell lines (cell viability analysis), AGS, repeated experiment
[28] = read-out: cell viability (survival rate), AGS, drug 10 μM, 72 hours, WST-1, OD450 nm
[29] = read-out: The results of antibiotic drug inhibiting cancer cell lines (cell viability analysis), HeLa, repeated experiment
[30] = read-out: cell viability (survival rate), HeLa, drug 10 μM, 72 hours, WST-1, OD450 nm
[31] = read-out: The results of antibiotic drug inhibiting cancer cell lines (cell viability analysis), MKN-45, MKN-45, repeated experiment
[32] = read-out: cell viability (survival rate), MKN-45, drug 10 μM, 72 hours, WST-1, OD450 nm
[33] = read-out: The results of antibiotic drug inhibiting cancer cell lines (cell viability analysis), A375, A375, repeated experiment
[34] = read-out: cell viability (survival rate), A375, drug 10 μM, 72 hours, WST-1, OD450 nm
[35] = read-out: The results of antibiotic drug inhibiting cancer cell lines (cell viability analysis), A549, A549, repeated experiment
[36] = read-out: cell viability (survival rate), A549, drug 10 μM, 72 hours, WST-1, OD450 nm

Row | Structure (SMILES) | viability at 10 µM [1, 19] [%] | viability at 10 µM [1, 20] [%] | viability at 10 µM [2] [%] | viability at 10 µM [3, 21] [%] | viability at 10 µM [3, 22] [%] | viability at 10 µM [4] [%] | viability at 10 µM [5, 23] [%] | viability at 10 µM [5, 24] [%] | viability at 10 µM [6] [%] | viability at 10 µM [7, 25] [%] | viability at 10 µM [7, 26] [%] | viability at 10 µM (TOV-21G) [%] | viability at 10 µM [8, 27] [%] | viability at 10 µM [8, 28] [%] | inhibition effect on different cancer cell lines (cancer cell lines) | viability at 10 µM (T24) [%] | viability at 10 µM (U-2OS) [%] | viability at 10 µM (BxPC-3) [%] | viability at 10 µM (NIH: OVCAR-3) [%] | viability at 10 µM [9, 29] [%] | other results
1 | CO[C@H]1/C=C/O[C@@]2(C)Oc3c(C)c(O)c4c(O)c(c5c(nc6cc(C)ccn65)c4c3C2=O)NC(=O)/C(C)=C\C=C\[C@H](C)[C@H](O)[C@@H](C)[C@@H](O)[C@@H](C)[C@H](OC(C)=O)[C@@H]1C [Rifaximin (Xifaxan), Rifaximin] | 115 | 102 | 107 | 89.9 | 40.1 | 100 | 69.5 | 82.4 | 69.8 | 114 | 61.3 | 88 | 98.1 | 93.2 | significant inhibition effect | 96.8 | 72.9 | 89 | 100 | 106 | viability at 10 µM [9, 30]: 54%; viability at 10 µM [10, 31]: 93.5%; viability at 10 µM [10, 32]: 52.7%; viability at 10 µM [11]: 81.8%; viability at 10 µM [12]: 87.6%; viability at 10 µM (AsPC-1): 71.2%; viability at 10 µM ([13]; read-out: The results of antibiotic drug inhibiting cancer cell lines (cell viability analysis), PC-3, PC-3, repeated experiment): 95.3%; viability at 10 µM ([13]; read-out: cell viability (survival rate), PC3, drug 10 μM, 72 hours, WST-1, OD450 nm): 67.1%; viability at 10 µM [14]: 110%; viability at 10 µM [15, 33]: 98.2%; viability at 10 µM [15, 34]: 59.5%; viability at 10 µM [16, 35]: 108%; viability at 10 µM [16, 36]: 35.1%; viability at 10 µM [17]: 98.7%
2 | N=C(N)c1ccc(OCCCCCOc2ccc(C(=N)N)cc2)cc1 [Pentamidine] | 69.1 | 76.4 | 65.7 | 60.5 | 68.5 | 57.8 | 68.5 | 65.8 | 50.9 | 82.7 | 59.3 | 82.9 | 92.4 | 50.6 | significant inhibition effect | 123 | 43.9 | 55 | 90.9 | 44.6 | viability at 10 µM ([18]; read-out: The results of antibiotic drug inhibiting cancer cell lines (cell viability analysis), LoVo, repeated experiment): 63.4%; viability at 10 µM ([18]; read-out: cell viability (survival rate), LoVo, drug 10 μM, 72 hours, WST-1, OD450 nm): 74.4%; viability at 10 µM [9, 30]: 55.9%; viability at 10 µM [10, 31]: 97.3%; viability at 10 µM [10, 32]: 86.3%; viability at 10 µM [11]: 45.8%; viability at 10 µM [12]: 67.3%; viability at 10 µM (AsPC-1): 66.2%; viability at 10 µM [14]: 72%; viability at 10 µM [15, 33]: 49.8%; viability at 10 µM [15, 34]: 38.2%; viability at 10 µM [16, 35]: 35.4%; viability at 10 µM [16, 36]: 51.8%; viability at 10 µM [17]: 79%
